Test system: thermostable luciferase (Luc 146-1H2)
Assay: Thermostable luciferase reaction with luciferin derivatives: light readings
Assay type: biochemical
Description: This stock was used to produce enzyme stock solution having of 200 µg/ml enzyme solution in 1 mg/ml BSA, 200 mM HEPES buffer, pH 8.0, 20 mM MgCl2.
Solutions were made using a 1 M DTT solution, pH adjusted to 8.0, a 20 mM Coenzyme A solution in water (both described in examples above), a 100 mM ATP solution and water to create the following solutions: Sol'A, 100 µM ATP; Sol'B, 100 µM ATP, 4 mM Coenzyme A; Sol'n C, 100 µM ATP, 400 mM DTT, and; Sol'n D, 100 µM ATP, 4 mM Coenzyme A and 400 mM DTT.
The following reactions were prepared (Table 47) Table 47
After assembly, the reactions were initiated by addition of 25 µl of the thermostable luciferase stock solution above and mixing the tube contents. A 50 µl sample was immediately removed and placed in a luminometer tube and the light read and the tube then replaced in a tube rack at room temperature. While the light reading was being taken, a 5 µl sample of the remaining reaction (which was kept at room temperature) was diluted into 495 µl of 50 mM BisTris, pH 6.5, 1 mg/ml BSA, 1 mM EDTA prechilled to 4°C and the tube mixed and placed on ice. The light produced by the samples in the luminometer tubes were re-read at 20, 40, 60, 90 and 120 minutes post enzyme addition. Additional 5 µl samples were taken and diluted as above at 60 and 120 minutes post enzyme addition. Once all these readings and samples were taken, 50 µl of the diluted samples was mixed with 50 µl of Steady Glo in luminometer tubes, the tubes incubated 10 minutes on ice then the light produced was read on a Turner TD 20/20 luminometer.

SMILES: O=C(O)[C@H]1CSC(c2nc3ccc(OCc4ccccc4)cc3s2)=N1 [L'in-BE]
- light readings from the reaction samples (substrate 6.25 (L'in-BE: 6.26), + Co A & DTT, Time 0 min): 436.9
- light readings from the reaction samples (substrate 6.25 (L'in-BE: 6.26), + Co A & DTT, Time 20 min): 80.41
- light readings from the reaction samples (substrate 6.25 (L'in-BE: 6.26), + Co A & DTT, Time 40 min): 38.47
- light readings from the reaction samples (substrate 6.25 (L'in-BE: 6.26), + Co A & DTT, Time 60 min): 22.83
- light readings from the reaction samples (substrate 6.25 (L'in-BE: 6.26), + Co A & DTT, Time 90 min): 16.08
- light readings from the reaction samples (substrate 6.25 (L'in-BE: 6.26), + Co A & DTT, Time 120 min): 12.01
- light readings from the reaction samples (substrate 6.25 (L'in-BE: 6.26), + Co A, Time 0 min): 2575
- light readings from the reaction samples (substrate 6.25 (L'in-BE: 6.26), + Co A, Time 20 min): 207.1
- light readings from the reaction samples (substrate 6.25 (L'in-BE: 6.26), + Co A, Time 40 min): 83.73
- light readings from the reaction samples (substrate 6.25 (L'in-BE: 6.26), + Co A, Time 60 min): 45.54
- light readings from the reaction samples (substrate 6.25 (L'in-BE: 6.26), + Co A, Time 90 min): 24
- light readings from the reaction samples (substrate 6.25 (L'in-BE: 6.26), + Co A, Time 120 min): 14.42
- light readings from the reaction samples (substrate 6.25 (L'in-BE: 6.26), + DTT, Time 0 min): 455.6
- light readings from the reaction samples (substrate 6.25 (L'in-BE: 6.26), + DTT, Time 20 min): 71.9
- light readings from the reaction samples (substrate 6.25 (L'in-BE: 6.26), + DTT, Time 40 min): 33.73
- light readings from the reaction samples (substrate 6.25 (L'in-BE: 6.26), + DTT, Time 60 min): 21.49
- light readings from the reaction samples (substrate 6.25 (L'in-BE: 6.26), + DTT, Time 90 min): 13.67
- light readings from the reaction samples (substrate 6.25 (L'in-BE: 6.26), + DTT, Time 120 min): 9.847
- light readings from the reaction samples (substrate 6.25 (L'in-BE: 6.26), Alone, Time 0 min): 785.5
- light readings from the reaction samples (substrate 6.25 (L'in-BE: 6.26), Alone, Time 20 min): 62.64
- light readings from the reaction samples (substrate 6.25 (L'in-BE: 6.26), Alone, Time 40 min): 22.11
- light readings from the reaction samples (substrate 6.25 (L'in-BE: 6.26), Alone, Time 60 min): 11.22
- light readings from the reaction samples (substrate 6.25 (L'in-BE: 6.26), Alone, Time 90 min): 5.189
- light readings from the reaction samples (substrate 6.25 (L'in-BE: 6.26), Alone, Time 120 min): 2.995
- light readings from the reaction samples (substrate 25, + Co A & DTT, Time 0 min): 402
- light readings from the reaction samples (substrate 25, + Co A & DTT, Time 20 min): 85.37
- light readings from the reaction samples (substrate 25, + Co A & DTT, Time 40 min): 45.87
- light readings from the reaction samples (substrate 25, + Co A & DTT, Time 60 min): 27.94
- light readings from the reaction samples (substrate 25, + Co A & DTT, Time 90 min): 18.94
- light readings from the reaction samples (substrate 25, + Co A & DTT, Time 120 min): 13.13
- light readings from the reaction samples (substrate 25, + Co A, Time 0 min): 972.4
- light readings from the reaction samples (substrate 25, + Co A, Time 20 min): 127.4
- light readings from the reaction samples (substrate 25, + Co A, Time 40 min): 58.9
- light readings from the reaction samples (substrate 25, + Co A, Time 60 min): 31.96
- light readings from the reaction samples (substrate 25, + Co A, Time 90 min): 17.54
- light readings from the reaction samples (substrate 25, + Co A, Time 120 min): 9.727
- light readings from the reaction samples (substrate 25, + DTT, Time 0 min): 448.6
- light readings from the reaction samples (substrate 25, + DTT, Time 20 min): 84.21
- light readings from the reaction samples (substrate 25, + DTT, Time 40 min): 43.77
- light readings from the reaction samples (substrate 25, + DTT, Time 60 min): 27.21
- light readings from the reaction samples (substrate 25, + DTT, Time 90 min): 18.48
- light readings from the reaction samples (substrate 25, + DTT, Time 120 min): 12.93
- light readings from the reaction samples (substrate 25, Alone, Time 0 min): 623.2
- light readings from the reaction samples (substrate 25, Alone, Time 20 min): 73.96
- light readings from the reaction samples (substrate 25, Alone, Time 40 min): 28.76
- light readings from the reaction samples (substrate 25, Alone, Time 60 min): 13.42
- light readings from the reaction samples (substrate 25, Alone, Time 90 min): 5.528
- light readings from the reaction samples (substrate 25, Alone, Time 120 min): 2.549
- light readings from the reaction samples (substrate 100, + Co A & DTT, Time 0 min): 140.4
- light readings from the reaction samples (substrate 100, + Co A & DTT, Time 20 min): 71.5
- light readings from the reaction samples (substrate 100, + Co A & DTT, Time 40 min): 45.66
- light readings from the reaction samples (substrate 100, + Co A & DTT, Time 60 min): 29.32
- light readings from the reaction samples (substrate 100, + Co A & DTT, Time 90 min): 19.92
- light readings from the reaction samples (substrate 100, + Co A & DTT, Time 120 min): 13.08

Source: patent publication EP1935986B1, “Luminogenic and fluorogenic compounds and methods to detect molecules or conditions” (priority 2005, dated 2006)
